Source: PMC11601558, “SLC6A19 inhibition facilitates urinary neutral amino acid excretion and lowers plasma phenylalanine” (JCI Insight, 2024)

Tested on: healthy volunteers
Test: Plasma amino acid levels in healthy volunteers (MAD)
Type: in vivo, human
Protocol: The effect of JNT-517 on plasma and urine AA levels was measured using an ultra-performance liquid chromatography mass spectrometry assay following 6-aminoquinolyl-N-hydroxysuccinimidyl carbamate (AQC) derivatization. For the SAD study, plasma samples were collected on day –1 and day 1 predose, as well as 24, 48, and 72 hours after dosing. A first morning void urine sample on Days –1 and 1 predose, as well as 2 pooled urine samples 0–8 hours after and 8–24 hours after dose were also collected following study drug administration. For the MAD study, plasma samples were collected on day –1, 1, 7, and 14 predose, as well as day 14, 24 hours after dosing. A first morning void urine samples on day –1, 1, 7, and 14 as well as 2 pooled urine samples 0–8 hours and 8–24 hours after dose on days 1, 7, and 14 were also collected following JNT-517 or placebo administration. Study participants in SAD and MAD cohorts were dosed in the morning following an overnight fast of at least 8 hours and were provided the following meals in relation to dosing times: breakfast after the morning dose, lunch 4 hours after morning dose, optional snack in the afternoon 8 hours after the morning dose and after the second dose for MAD cohorts dosed BID, dinner approximately 10 hours after the morning dose and at least 2 hours after the second dose for MAD cohorts dosed BID. Predose plasma amino acids were drawn after a minimum of 8 hours fasting overnight and after-dose levels were drawn after > 1.5 hours fasting. Resulting plasma and urine amino acid concentration measurements, as well a total amino acid excretion over a time period were summarized using appropriate descriptive statistics and compared with either predose levels or placebo-dose values. Tryptophan was not included in the amino acid panel due to analytical limitations.

NC(=O)N1CCC[C@@H](N(C(=O)NCc2ccc(OC(F)(F)F)cc2F)C2CC2)C1 [JNT-517]
number of subjects with plasma Alanine below lower limit of normal (MAD 25 mg BID, Post-dose): 0 | number of subjects with plasma Arginine below lower limit of normal (MAD 25 mg BID, Post-dose): 0 | number of subjects with plasma Asparagine below lower limit of normal (MAD 25 mg BID, Post-dose): 0 | number of subjects with plasma Cystine below lower limit of normal (MAD 25 mg BID, Post-dose): 5 | number of subjects with plasma Glutamate below lower limit of normal (MAD 25 mg BID, Post-dose): 0 | number of subjects with plasma Glutamine below lower limit of normal (MAD 25 mg BID, Post-dose): 0 | number of subjects with plasma Glycine below lower limit of normal (MAD 25 mg BID, Post-dose): 0 | number of subjects with plasma Isoleucine below lower limit of normal (MAD 25 mg BID, Post-dose): 0 | number of subjects with plasma Leucine below lower limit of normal (MAD 25 mg BID, Post-dose): 0 | number of subjects with plasma Lysine below lower limit of normal (MAD 25 mg BID, Post-dose): 0 | number of subjects with plasma Methionine below lower limit of normal (MAD 25 mg BID, Post-dose): 0 | number of subjects with plasma Phenylalanine below lower limit of normal (MAD 25 mg BID, Post-dose): 0 | number of subjects with plasma Proline below lower limit of normal (MAD 25 mg BID, Post-dose): 0 | number of subjects with plasma Serine below lower limit of normal (MAD 25 mg BID, Post-dose): 0 | number of subjects with plasma Threonine below lower limit of normal (MAD 25 mg BID, Post-dose): 0 | number of subjects with plasma Tyrosine below lower limit of normal (MAD 25 mg BID, Post-dose): 0 | number of subjects with plasma Valine below lower limit of normal (MAD 25 mg BID, Post-dose): 0 | number of subjects with plasma Alanine below lower limit of normal (MAD 75 mg BID, Post-dose): 0 | number of subjects with plasma Arginine below lower limit of normal (MAD 75 mg BID, Post-dose): 0 | number of subjects with plasma Asparagine below lower limit of normal (MAD 75 mg BID, Post-dose): 0 | number of subjects with plasma Cystine below lower limit of normal (MAD 75 mg BID, Post-dose): 0 | number of subjects with plasma Glutamate below lower limit of normal (MAD 75 mg BID, Post-dose): 0 | number of subjects with plasma Glutamine below lower limit of normal (MAD 75 mg BID, Post-dose): 0 | number of subjects with plasma Glycine below lower limit of normal (MAD 75 mg BID, Post-dose): 0 | number of subjects with plasma Isoleucine below lower limit of normal (MAD 75 mg BID, Post-dose): 0 | number of subjects with plasma Leucine below lower limit of normal (MAD 75 mg BID, Post-dose): 0 | number of subjects with plasma Lysine below lower limit of normal (MAD 75 mg BID, Post-dose): 0 | number of subjects with plasma Methionine below lower limit of normal (MAD 75 mg BID, Post-dose): 0 | number of subjects with plasma Phenylalanine below lower limit of normal (MAD 75 mg BID, Post-dose): 0 | number of subjects with plasma Proline below lower limit of normal (MAD 75 mg BID, Post-dose): 0 | number of subjects with plasma Serine below lower limit of normal (MAD 75 mg BID, Post-dose): 0 | number of subjects with plasma Threonine below lower limit of normal (MAD 75 mg BID, Post-dose): 0 | number of subjects with plasma Tyrosine below lower limit of normal (MAD 75 mg BID, Post-dose): 0 | number of subjects with plasma Valine below lower limit of normal (MAD 75 mg BID, Post-dose): 0 | number of subjects with plasma Alanine below lower limit of normal (MAD 150 mg QD, Post-dose): 0 | number of subjects with plasma Arginine below lower limit of normal (MAD 150 mg QD, Post-dose): 0 | number of subjects with plasma Asparagine below lower limit of normal (MAD 150 mg QD, Post-dose): 0 | number of subjects with plasma Cystine below lower limit of normal (MAD 150 mg QD, Post-dose): 5 | number of subjects with plasma Glutamate below lower limit of normal (MAD 150 mg QD, Post-dose): 0 | number of subjects with plasma Glutamine below lower limit of normal (MAD 150 mg QD, Post-dose): 0 | number of subjects with plasma Glycine below lower limit of normal (MAD 150 mg QD, Post-dose): 0 | number of subjects with plasma Isoleucine below lower limit of normal (MAD 150 mg QD, Post-dose): 0 | number of subjects with plasma Leucine below lower limit of normal (MAD 150 mg QD, Post-dose): 0 | number of subjects with plasma Lysine below lower limit of normal (MAD 150 mg QD, Post-dose): 0 | number of subjects with plasma Methionine below lower limit of normal (MAD 150 mg QD, Post-dose): 0 | number of subjects with plasma Phenylalanine below lower limit of normal (MAD 150 mg QD, Post-dose): 0 | number of subjects with plasma Proline below lower limit of normal (MAD 150 mg QD, Post-dose): 0 | number of subjects with plasma Threonine below lower limit of normal (MAD 150 mg QD, Post-dose): 0 | number of subjects with plasma Valine below lower limit of normal (MAD 150 mg QD, Post-dose): 0 | number of subjects with plasma Serine below lower limit of normal (MAD 150 mg QD, Post-dose (16.7%)): 1 | number of subjects with plasma Tyrosine below lower limit of normal (MAD 150 mg QD, Post-dose (33.3%)): 2
